# Assay results reported in patent US20240131045A1, “METHODS FOR TREATMENT OF VIRAL INFECTIONS” (priority 2022, published 2024).
# Where two headings read alike, the source gives them in different places.
# Columns and labels:
# in vivo = conditions: monkey
# [1] = Urine PK and renal clearance of compound 1, Phase 1 study
# [2] = human, in vivo
# [3] = Intracellular PK of compound A (GS-443902) in PBMCs, Phase 1 study; conditions: healthy participants
# [4] = Phase 1 study, safety and tolerability in healthy participants
# [5] = human, in vivo, 500 mg
# [6] = both, human, in vivo
# [7] = Phase 1 single- and multiple-ascending dose study, compound 1 plasma PK in healthy participants
# [8] = human, in vivo; remark: listed apart in the source
# Description: To note, eGFR was estimated using Modification of Diet in Renal Disease (MDRD) equation shown below. Furthermore, participants with kidney failure who were on dialysis are not included in this regression analysis.
smiles,measurement,setting,value
N#C[C@@]1(c2ccc3c(N)ncnn23)O[C@H](CO)[C@@H](O)[C@H]1O [compound 1],AUC(0-t),in vivo,18200 to 36400 ng·h/mL
"CC(C)C(=O)OC[C@H]1O[C@@](C#N)(c2ccc3c(N)ncnn23)[C@H](O)[C@@H]1O [compound 16, obeldesivir]",compound 16 in urine,[1]; in vivo,not detectable
same,compound 1 metabolite renal clearance,[2],150 to 180 mL/min
same,intracellular concentrations of compound A in PBMCs versus dose,[3],Dose-proportional increases
same,AE,[4]; 500 mg BID (n = 6),2 n
same,AE related to study drug,[4]; 500 mg BID (n = 6),1 n
same,Grade 2 creatinine clearance decrease,[4]; 500 mg BID (n = 6),0 n
same,Grade 2 laboratory abnormalities,[4]; 500 mg BID (n = 6),0 n
same,Grade 3 laboratory abnormalities,[4]; 500 mg BID (n = 6),0 n
same,Grade 3 lipase increase,[4]; 500 mg BID (n = 6),0 n
same,Grade ≥3 AE,[4]; 500 mg BID (n = 6),0 n
same,AE,[4]; 900 mg QD (n = 6),1 n
same,AE related to study drug,[4]; 900 mg QD (n = 6),0 n
same,Grade 2 creatinine clearance decrease,[4]; 900 mg QD (n = 6),2 n
same,Grade 2 laboratory abnormalities,[4]; 900 mg QD (n = 6),2 n
same,Grade 3 laboratory abnormalities,[4]; 900 mg QD (n = 6),0 n
same,Grade 3 lipase increase,[4]; 900 mg QD (n = 6),0 n
same,Grade ≥3 AE,[4]; 900 mg QD (n = 6),0 n
same,participants with headache (Grade 1) attributed to study drug,"[4]; 2 of 8 participants, Cohort 5 (500 mg BID for 5 days)",25%
same,participants with contact dermatitis,[4]; 2 of 48 participants,4.2%
same,participants with study drug-related AEs (headaches),[4]; 2 of 58 participants who received compound 16,3.4%
same,participants with headache,[4]; 3 of 48 participants,6.3%
same,participants with decreased creatinine clearance,"[4]; 6 of 8 participants, Cohort 4 (1,600 mg single dose)",75%
same,participants with treatment-emergent adverse events (TEAEs),"[4]; 10 of 48 participants, compound 16 or placebo, Cohorts 1-6",21%
same,participants with decreased creatinine clearance,[4]; 13 of 48 participants overall,27%
same,participants with a decrease in creatinine clearance,[4]; 18 of 58 participants who received compound 16,31%
same,participants with graded postbaseline laboratory abnormalities,[4]; 25 of 48 participants,52.1%
same,Grade 3 or higher AEs,"[4]; 48 participants, Cohorts 1-6",no Grade 3 or higher AEs
same,serious AEs,"[4]; 48 participants, Cohorts 1-6",no serious AEs
same,Grade 3 laboratory abnormality (lipase elevation at Day 3),[4]; Cohort 2 (300 mg single dose),one Grade 3 laboratory abnormality
same,"changes in vital signs, electrocardiograms (ECGs), visual acuity, or fundoscopic examinations",[4]; Cohorts 1-6,no clinically relevant changes
same,safety and tolerability,"[4]; Example 2, Cohorts 1-6, compound 16 or placebo",safe and well tolerated
same,safety and tolerability,"[4]; Example 4, healthy participants",safe and well tolerated
same,AE,[4]; Fasted 500 mg (n = 11),3 n
same,AE related to study drug,[4]; Fasted 500 mg (n = 11),1 n
same,Grade 2 creatinine clearance decrease,[4]; Fasted 500 mg (n = 11),2 n
same,Grade 2 laboratory abnormalities,[4]; Fasted 500 mg (n = 11),2 n
same,Grade 3 laboratory abnormalities,[4]; Fasted 500 mg (n = 11),0 n
same,Grade 3 lipase increase,[4]; Fasted 500 mg (n = 11),0 n
same,Grade ≥3 AE,[4]; Fasted 500 mg (n = 11),0 n
same,AE,[4]; Fed 500 mg (n = 11),1 n
same,AE related to study drug,[4]; Fed 500 mg (n = 11),0 n
same,Grade 2 creatinine clearance decrease,[4]; Fed 500 mg (n = 11),5 n
same,Grade 2 laboratory abnormalities,[4]; Fed 500 mg (n = 11),5 n
same,Grade 3 laboratory abnormalities,[4]; Fed 500 mg (n = 11),0 n
same,Grade 3 lipase increase,[4]; Fed 500 mg (n = 11),0 n
same,Grade ≥3 AE,[4]; Fed 500 mg (n = 11),0 n
same,AE,[4]; single dose 100 mg (n = 6),1 n
same,AE related to study drug,[4]; single dose 100 mg (n = 6),0 n
same,Grade 2 creatinine clearance decrease,[4]; single dose 100 mg (n = 6),0 n
same,Grade 2 laboratory abnormalities,[4]; single dose 100 mg (n = 6),1 n
same,Grade 3 laboratory abnormalities,[4]; single dose 100 mg (n = 6),0 n
same,Grade 3 lipase increase,[4]; single dose 100 mg (n = 6),0 n
same,Grade ≥3 AE,[4]; single dose 100 mg (n = 6),0 n
same,AE,[4]; single dose 300 mg (n = 6),0 n
same,AE related to study drug,[4]; single dose 300 mg (n = 6),0 n
same,Grade 2 creatinine clearance decrease,[4]; single dose 300 mg (n = 6),1 n
same,Grade 2 laboratory abnormalities,[4]; single dose 300 mg (n = 6),1 n
same,Grade 3 laboratory abnormalities,[4]; single dose 300 mg (n = 6),1 n
same,Grade 3 lipase increase,[4]; single dose 300 mg (n = 6),1 n
same,Grade ≥3 AE,[4]; single dose 300 mg (n = 6),0 n
same,AE,[4]; single dose 900 mg (n = 6),0 n
same,AE related to study drug,[4]; single dose 900 mg (n = 6),0 n
same,Grade 2 creatinine clearance decrease,[4]; single dose 900 mg (n = 6),2 n
same,Grade 2 laboratory abnormalities,[4]; single dose 900 mg (n = 6),2 n
same,Grade 3 laboratory abnormalities,[4]; single dose 900 mg (n = 6),0 n
same,Grade 3 lipase increase,[4]; single dose 900 mg (n = 6),0 n
same,Grade ≥3 AE,[4]; single dose 900 mg (n = 6),0 n
same,AE,[4]; single dose 1600 mg (n = 6),2 n
same,AE related to study drug,[4]; single dose 1600 mg (n = 6),0 n
same,Grade 2 creatinine clearance decrease,[4]; single dose 1600 mg (n = 6),6 n
same,Grade 2 laboratory abnormalities,[4]; single dose 1600 mg (n = 6),6 n
same,Grade 3 laboratory abnormalities,[4]; single dose 1600 mg (n = 6),0 n
same,Grade 3 lipase increase,[4]; single dose 1600 mg (n = 6),0 n
same,Grade ≥3 AE,[4]; single dose 1600 mg (n = 6),0 n
same,Compound 1 plasma AUC0-24,[5],"20,903 h · ng/mL"
same,Compound 1 plasma AUCinf,[5],"22,100 h · ng/mL"
same,Compound 1 plasma AUClast,[5],"22,000 h · ng/mL"
same,Compound 1 plasma Cmax,[5],3600 ng/mL
same,Compound 1 plasma t1/2,[5],6.3 h
same,compound 1 terminal plasma elimination half-life,[6],6 to 7 h
same,Compound 1 plasma AUC (AUCinf),[6]; 100 mg,3700 ng·h/mL
same,Compound 1 plasma Cmax,[6]; 100 mg,570 ng/mL
same,Compound 1 plasma t1/2,[6]; 100 mg,5.85 h
same,Compound 1 plasma AUC (AUCinf),[6]; 300 mg,"10,400 h · ng/mL"
same,Compound 1 plasma Cmax,[6]; 300 mg,1830 ng/mL
same,Compound 1 plasma Tmax,[6]; 300 mg,0.78 h
same,Compound 1 plasma Cmax,[6]; 500 mg,3820 ng/mL
same,Compound 1 plasma AUC (AUCD1),[6]; 900 mg,"32,000 h · ng/mL"
same,Compound 1 plasma AUC (AUCinf),[6]; 900 mg,"34,600 h · ng/mL"
same,Compound 1 plasma AUC (AUCtau),[6]; 900 mg,"35,700 h · ng/mL"
same,Compound 1 plasma Tmax,[6]; 900 mg,1.5 h
same,Compound 1 plasma t1/2,[6]; 900 mg,7.36 h
same,Compound 1 plasma AUC (AUCinf),[6]; 1600 mg,"48,300 h · ng/mL"
same,Compound 1 plasma Cmax,[6]; 1600 mg,7170 ng/mL
same,Compound 1 plasma Tmax,[6]; 1600 mg,1.5 h
same,Compound 1 plasma t1/2,[6]; 1600 mg,15.7 h
same,plasma half-life of metabolite compound 1,[6]; po,~6 h
same,target therapeutic exposures of plasma compound 1 and intracellular compound A,"[7]; 900 mg QD and 500 mg BID for 5 days, respectively",reached or exceeded
same,dose proportionality of compound 1 PK,[7]; 1600 mg dose,less than dose-proportional increases
same,dose proportionality of compound 1 PK,[7]; 100 to 900 mg range,linear and dose-proportional PK
same,compound 16 prodrug levels in plasma,[7]; healthy participants,either undetectable or low and transient
CCC(CC)COC(=O)[C@H](C)N[P@](=O)(OC[C@H]1O[C@@](C#N)(c2ccc3c(N)ncnn23)[C@H](O)[C@@H]1O)Oc1ccccc1 [remdesivir],compound 1 renal clearance (CLr) after remdesivir or compound 16 administration,[1]; amount excreted in urine over the corresponding plasma AUC,comparable
same,plasma increase of compound 1 AUCinf,[8],~35%
same,plasma increase of compound 1 Cmax,[8],~10%
